≈ marks a conversion by molar mass, not a printed value.

Usually solubility (kinetic) stands for solubility judged after dilution from a stock solution rather than from solid.

The conditions of the data set: buffer; pH 7.4; 200.0 µM.
Molecule `CCOC(=O)c1cccc(NC(=S)NC(=O)c2cccnc2)c1` yielded a kinetic solubility of 8.1 µg/mL (≈ 24.6 µM). The molecule `CC(C)(C)OC(=O)NCCC(=O)N/N=C/c1cccc2cccnc12` showed a solubility (kinetic) of over 51.4 µg/mL. The molecule `CC(=O)OCC(=O)Nc1ccccc1OC(F)F` had a kinetic solubility of over 38.9 µg/mL.

As for `O=C(c1ccc([N+](=O)[O-])cc1)N1CCc2ccccc21`, the solubility (kinetic) was determined as 1 µg/mL (≈ 3.73 µM). As for `O=C1NC(c2cccc(Cl)c2)Oc2ccccc21` (centres undefined), the figure is 1.2 µg/mL (≈ 4.62 µM); as for `CC(=O)c1ccc(Sc2ccccc2)c([N+](=O)[O-])c1`, 3.1 µg/mL (≈ 11.3 µM). To `Cc1noc(C)c1C(=O)Nc1ccc2ccccc2c1` belongs 11.2 µg/mL (≈ 42.1 µM). With `COc1cccc(NC(=O)Nc2nc(SC)ns2)c1`, the solubility (kinetic) stood at 1.3 µg/mL (≈ 4.39 µM). Regarding `CC(NC(=O)c1cc(F)c(F)cc1Cl)c1ccncc1` (centres undefined), the solubility (kinetic) was over 44.5 µg/mL. As for `Cc1ncc([N+](=O)[O-])n1CC(=O)Nc1ccc(F)c(F)c1`, the figure is 6.4 µg/mL (≈ 21.6 µM); as for `COc1cccc(C(=O)Nc2ccc3[nH]c(=O)[nH]c3c2)c1OC`, 27.7 µg/mL (≈ 88.4 µM). Take `CC(C)NC(=O)c1cccc2c1-c1ccccc1C2=O`: the solubility (kinetic) stood at 13.3 µg/mL (≈ 50.1 µM). To `O=C1CCN(S(=O)(=O)c2ccc(Cl)cc2)CCN1` belongs over 43.3 µg/mL; to `COc1ccc(OC)c(NC(=O)CCc2c[nH]c3ccccc23)c1`, 10.9 µg/mL (≈ 33.6 µM). As for `Cc1ccc(S(=O)(=O)NCC(=O)OCC(=O)N2C(C)CCCC2C)cc1` (centres undefined), the figure is 53.9 µg/mL (≈ 141 µM). As for `Cc1c([N+](=O)[O-])cc(C(=O)Nc2ccc3ncccc3c2)cc1[N+](=O)[O-]`, the figure is 0.5 µg/mL (≈ 1.42 µM); as for `CP(=O)(O)CN1CCCCC1`, 24.9 µg/mL (≈ 141 µM); as for `NC(=O)Cn1nc([N+](=O)[O-])nc1Oc1ccccc1F`, over 42.2 µg/mL. `Cl.O=[N+]([O-])c1cc(S(=O)(=O)CCCN2CCOCC2)ccc1F` yielded a kinetic solubility of over 55.3 µg/mL. To `Cc1cc(C)c(S(=O)(=O)N2CCCCC2C(=O)O)c(C)c1` (centres undefined) belongs over 46.7 µg/mL; to `NC(=O)C1CCCN(C(=S)NCc2ccc3c(c2)OCO3)C1` (centres undefined), over 48.2 µg/mL; to `Cc1ccsc1C(=O)OCC(=O)Nc1cccc(F)c1`, 3.4 µg/mL (≈ 11.6 µM). In turn, `COC(=O)c1cc(NC(=O)c2cccc(F)c2)cc(C(=O)OC)c1` had a kinetic solubility of 0.7 µg/mL (≈ 2.11 µM). `Cc1ccc(C(=O)CCC(=O)N2CCC(C(N)=O)CC2)s1`: the solubility (kinetic) is over 46.3 µg/mL. As for `O=C(Nc1ccc(F)cc1F)c1cc(Cl)sc1Cl`, the figure is under 0.7 µg/mL. As for `CN(C)c1nc(-c2cccnc2)nc(-c2ccccc2)c1C#N`, the figure is 0.6 µg/mL (≈ 1.99 µM); as for `O=C(COC(=O)/C=C/c1cccc(C(F)(F)F)c1)NC(=O)NCc1ccco1`, 4.5 µg/mL (≈ 11.4 µM). As for `Cc1cccc(Cn2cc(C=O)c3ccccc32)c1`, the figure is 14.5 µg/mL (≈ 58.2 µM); as for `O=C(CCC(=O)c1cccs1)NCc1cccc(Cl)c1`, over 46.2 µg/mL; as for `CCNC(=S)N1CCC(n2cnc3ccccc32)CC1`, over 43.3 µg/mL. As for `CSc1nsc(SCC(=O)Nc2ccccc2)n1`, the solubility (kinetic) amounted to 32.4 µg/mL (≈ 109 µM). Turning to `CC(NC(=O)CN(C)Cc1cccc(F)c1)c1ccccc1` (centres undefined), the kinetic solubility is over 45.1 µg/mL. To `O=C(CCc1ccccc1)NCC(=O)N/N=C/c1ccc(O)cc1O` belongs over 51.2 µg/mL.

The molecule `Cc1ccc(C(=O)NC(=S)Nc2ccc(CN3CCOCC3)cc2)cc1` registered a kinetic solubility of 2.7 µg/mL (≈ 7.31 µM). Take `O=C(Nc1cccc(S(=O)(=O)Nc2ccccc2F)c1)c1ccco1`: the solubility (kinetic) was 11.1 µg/mL (≈ 30.8 µM).

The molecule `Cc1ccccc1NC(=O)CCCC(=O)c1ccccc1` gave a solubility (kinetic) of 21.9 µg/mL (≈ 77.8 µM). To `O=C(NCCc1ccccc1)Oc1ccc(Cl)cc1` belongs 2.3 µg/mL (≈ 8.34 µM); to `Cc1ccccc1NC(=O)C(C)SCc1ccccc1` (centres undefined), over 42.8 µg/mL. As for `O=C(CSc1cccc[n+]1[O-])c1ccc(Cl)s1`, the figure is 38.3 µg/mL (≈ 134 µM); as for `CCN(C(=O)COC(=O)c1cccnc1SC)C1CCCCC1`, over 50.5 µg/mL. `CN1CCN(C2CCN(c3cccc(Cl)c3)CC2)CC1CCO` (centres undefined) yielded a solubility (kinetic) of 36.8 µg/mL (≈ 109 µM). As for `COc1ccc(OCCn2c(N)nc3ccccc32)cc1`, the figure is over 42.5 µg/mL. For `O=C(Nc1nnc(-c2ccccc2)o1)c1cccc(S(=O)(=O)N2CCOCC2)c1`, the kinetic solubility was over 62.2 µg/mL. As for `Cc1ccc(-c2csc3ncn(CC(N)=O)c(=O)c23)cc1C`, the figure is over 47 µg/mL; as for `COCc1nc2oc3ccc(C)cc3c(=O)c2cc1C(=O)OC`, 3.9 µg/mL (≈ 12.4 µM). To `COc1cc([N+](=O)[O-])ccc1NC(=O)COC(=O)c1c[nH]c(=O)[nH]c1=O` belongs over 54.6 µg/mL; to `O=C(CSCc1ccccc1)Nc1ccc(F)cc1F`, 41 µg/mL (≈ 140 µM); to `Nc1ncnc(Nc2ccc(F)c(Cl)c2)n1`, 8.4 µg/mL (≈ 35.1 µM). As for `COc1cc(Nc2ccc(S(N)(=O)=O)cc2)c([N+](=O)[O-])nc1[N+](=O)[O-]`, the figure is 3.8 µg/mL (≈ 10.3 µM). The molecule `c1coc(-c2ccnc(-n3cccc3)n2)c1` gave a solubility (kinetic) of 1.6 µg/mL (≈ 7.57 µM). As for `CCc1noc(C)c1C(=O)OCC(=O)NC(C)c1ccccc1` (centres undefined), the figure is over 47.5 µg/mL; as for `COc1ccccc1C1(CCNC(C)c2cccs2)CCOC(C(C)C)C1` (centres undefined), 54.4 µg/mL (≈ 140 µM); as for `CCN(CC)c1ccc(NC(=O)c2c(C)noc2C)cc1`, over 43.1 µg/mL. To `CCN1CCC(N2CCN(c3ccc(Cl)cc3)CC2)CC1` belongs 15.7 µg/mL (≈ 51 µM). `O=c1[nH]c(O)c(C=Nc2ccc(F)c(Cl)c2)c(=O)[nH]1` came in with a solubility (kinetic) of 14 µg/mL (≈ 49.4 µM). To `CCC(Oc1ccccc1C)C(=O)N1CCCN(C)CC1` (centres undefined) belongs over 43.6 µg/mL; to `O=C(OCc1cccc([N+](=O)[O-])c1)c1cc2ccccc2oc1=O`, under 0.7 µg/mL; to `c1csc(-c2cc(N3CCCCC3)c3ccccc3n2)c1`, 1.1 µg/mL (≈ 3.74 µM).

In turn, `O=S(=O)(N1CCOCC1)N1CCOCC1` yielded a solubility (kinetic) of over 35.4 µg/mL. As for `Cc1cc(Nc2ccc(Br)cc2)nc(-c2ccccc2O)n1`, the figure is under 0.3 µg/mL. Molecule `CCCCc1c(O)nc(SCC(=O)N2CCCCCC2)[nH]c1=O` had a solubility (kinetic) of 48.9 µg/mL (≈ 144 µM). To `C=CCC(O)(CC=C)C(C)N.Cl` (centres undefined) belongs over 28.8 µg/mL. The molecule `O=C(NC(=S)Nc1cccnc1)c1cccs1` displayed a solubility (kinetic) of 10.4 µg/mL (≈ 39.5 µM). To `Cc1ccsc1CNC1C2CC3CC(C2)CC1C3.Cl` (centres undefined) belongs 39.9 µg/mL; to `O=C(O)c1cccc(N2C(=O)c3cccc4cccc(c34)C2=O)c1`, over 47.6 µg/mL; to `CCOc1ccc(OCC)c(S(=O)(=O)n2cc(C)nc2CC)c1`, 10.6 µg/mL (≈ 31.3 µM).

In the case of `COc1ccccc1N1CCN(C(=O)c2cc(C(C)(C)C)oc2C)CC1`, the solubility (kinetic) was 41.8 µg/mL (≈ 117 µM). This solubility kinetic is about 3.9-fold higher than that of the molecule before. To `CCN(C(=O)COC(=O)c1ccccc1OCc1ccc(Cl)cc1)C1CCS(=O)(=O)C1` (centres undefined) belongs 25 µg/mL (≈ 53.7 µM). To `COc1ccc(-c2csc3nc[nH]c(=O)c23)cc1OC` belongs 39.4 µg/mL (≈ 137 µM); to `Cn1c(N)c(S(=O)(=O)N2CCCC2)c(=O)n(C)c1=O`, over 43.2 µg/mL. To `CCOc1ccc(C(=O)NCC(c2cccs2)N2CCOCC2)cc1` (centres undefined) belongs over 54.1 µg/mL; to `CCCCc1c(C)nc(N2CCCC2)[nH]c1=O`, over 35.3 µg/mL. `O=C(COC(=O)CNC(=O)c1cc(Cl)cc([N+](=O)[O-])c1)NC(=O)NCc1ccco1` came in with a solubility (kinetic) of 61.7 µg/mL (≈ 141 µM).

The molecule `Cc1cc2oc(=O)cc(CN(C)Cc3cccc(F)c3)c2cc1C` displayed a kinetic solubility of 1.2 µg/mL (≈ 3.69 µM).

Values taken from PubChem BioAssay AID1996.
